From the NIST ThermoML archive (doi:10.1021/je4009415)
± gives the expanded uncertainty stated by the source.

Assay: xn = mol fraction of the nth substance listed
Conditions: Liquid, Vibrating tube method

CCC(=O)OC [methyl propanoate] + CCCCCCC
Conditions	mass density [kg/m3]
288.15 K, x1 = 0.0584	696.1 ± 0.27
288.15 K, x1 = 0.1524	710.11 ± 0.29
288.15 K, x1 = 0.2121	719.49 ± 0.31
288.15 K, x1 = 0.2626	728.22 ± 0.33
288.15 K, x1 = 0.2841	731.88 ± 0.34
288.15 K, x1 = 0.3577	745.5 ± 0.37
288.15 K, x1 = 0.4021	754.13 ± 0.39
288.15 K, x1 = 0.4565	765.31 ± 0.41
288.15 K, x1 = 0.5036	775.51 ± 0.44
288.15 K, x1 = 0.5554	787.28 ± 0.47
288.15 K, x1 = 0.6032	798.81 ± 0.5
288.15 K, x1 = 0.651	810.73 ± 0.53
288.15 K, x1 = 0.7008	824.05 ± 0.57
288.15 K, x1 = 0.742	835.61 ± 0.61
288.15 K, x1 = 0.7927	850.46 ± 0.66
288.15 K, x1 = 0.8457	866.96 ± 0.71
288.15 K, x1 = 0.953	903.48 ± 0.84
288.15 K, x1 = 1	921.21 ± 0.89
298.15 K, x1 = 0.0606	687.94 ± 0.27
298.15 K, x1 = 0.1046	694.01 ± 0.28
298.15 K, x1 = 0.1706	703.97 ± 0.3
298.15 K, x1 = 0.2332	713.99 ± 0.32
298.15 K, x1 = 0.2863	722.89 ± 0.34
298.15 K, x1 = 0.332	730.95 ± 0.35
298.15 K, x1 = 0.3827	740.59 ± 0.37
298.15 K, x1 = 0.4242	748.73 ± 0.39
298.15 K, x1 = 0.4831	760.98 ± 0.42
298.15 K, x1 = 0.5328	771.82 ± 0.45
298.15 K, x1 = 0.5887	784.89 ± 0.49
298.15 K, x1 = 0.6395	797.24 ± 0.52
298.15 K, x1 = 0.6831	808.46 ± 0.55
298.15 K, x1 = 0.733	821.94 ± 0.59
298.15 K, x1 = 0.7758	834.28 ± 0.63
298.15 K, x1 = 0.8196	847.29 ± 0.67
298.15 K, x1 = 0.8646	861.68 ± 0.72
298.15 K, x1 = 0.9035	874.46 ± 0.76
298.15 K, x1 = 0.9591	893.83 ± 0.83
298.15 K, x1 = 1	909.1 ± 0.88
308.15 K, x1 = 0.046	676.88 ± 0.27
308.15 K, x1 = 0.0974	683.97 ± 0.28
308.15 K, x1 = 0.1499	691.6 ± 0.29
308.15 K, x1 = 0.2093	700.71 ± 0.31
308.15 K, x1 = 0.2472	706.83 ± 0.32
308.15 K, x1 = 0.2655	709.84 ± 0.33
308.15 K, x1 = 0.3021	716.16 ± 0.34
308.15 K, x1 = 0.3462	723.99 ± 0.36
308.15 K, x1 = 0.3973	733.51 ± 0.38
308.15 K, x1 = 0.4379	741.49 ± 0.4
308.15 K, x1 = 0.5001	754.33 ± 0.43
308.15 K, x1 = 0.5482	764.86 ± 0.46
308.15 K, x1 = 0.6013	777.11 ± 0.49
308.15 K, x1 = 0.6438	787.52 ± 0.52
308.15 K, x1 = 0.7002	801.92 ± 0.56
308.15 K, x1 = 0.7516	815.93 ± 0.6
308.15 K, x1 = 0.7947	828.3 ± 0.64
308.15 K, x1 = 0.8541	846.5 ± 0.7
308.15 K, x1 = 0.8904	858.19 ± 0.74
308.15 K, x1 = 0.9494	878.31 ± 0.81
308.15 K, x1 = 1	896.91 ± 0.86
318.15 K, x1 = 0.054	669.26 ± 0.27
318.15 K, x1 = 0.1006	675.53 ± 0.28
318.15 K, x1 = 0.1635	684.64 ± 0.29
318.15 K, x1 = 0.1984	689.88 ± 0.3
318.15 K, x1 = 0.2627	699.98 ± 0.32
318.15 K, x1 = 0.2892	704.22 ± 0.33
318.15 K, x1 = 0.3492	714.64 ± 0.36
318.15 K, x1 = 0.3962	723.32 ± 0.38
318.15 K, x1 = 0.4482	733.48 ± 0.4
318.15 K, x1 = 0.5006	744.15 ± 0.42
318.15 K, x1 = 0.554	755.69 ± 0.45
318.15 K, x1 = 0.5928	764.54 ± 0.48
318.15 K, x1 = 0.6531	779.07 ± 0.52
318.15 K, x1 = 0.7022	791.53 ± 0.55
318.15 K, x1 = 0.7463	803.36 ± 0.59
318.15 K, x1 = 0.796	817.45 ± 0.63
318.15 K, x1 = 0.8421	831.26 ± 0.67
318.15 K, x1 = 0.8911	846.73 ± 0.72
318.15 K, x1 = 0.9487	866.17 ± 0.79
318.15 K, x1 = 1	884.71 ± 0.84
328.15 K, x1 = 0.0434	659.02 ± 0.27
328.15 K, x1 = 0.1	666.42 ± 0.28
328.15 K, x1 = 0.1539	673.86 ± 0.29
328.15 K, x1 = 0.2137	682.78 ± 0.31
328.15 K, x1 = 0.263	690.45 ± 0.32
328.15 K, x1 = 0.361	707.07 ± 0.36
328.15 K, x1 = 0.3858	711.54 ± 0.37
328.15 K, x1 = 0.4619	725.95 ± 0.4
328.15 K, x1 = 0.5057	734.85 ± 0.42
328.15 K, x1 = 0.5548	745.3 ± 0.45
328.15 K, x1 = 0.6006	755.62 ± 0.48
328.15 K, x1 = 0.6513	767.59 ± 0.51
328.15 K, x1 = 0.7013	780.04 ± 0.54
328.15 K, x1 = 0.7484	792.52 ± 0.58
328.15 K, x1 = 0.7954	805.67 ± 0.62
328.15 K, x1 = 0.8441	820.03 ± 0.66
328.15 K, x1 = 0.8954	836.18 ± 0.72
328.15 K, x1 = 0.9351	849.33 ± 0.76
328.15 K, x1 = 1	872.22 ± 0.83

CCC(=O)OC [methyl propanoate] + CCCCCCCCC
Conditions	mass density [kg/m3]
288.15 K, x1 = 0.0638	727.45 ± 0.26
288.15 K, x1 = 0.0962	730.67 ± 0.27
288.15 K, x1 = 0.1483	736.11 ± 0.29
288.15 K, x1 = 0.2104	743.23 ± 0.31
288.15 K, x1 = 0.2364	746.3 ± 0.32
288.15 K, x1 = 0.2979	754.2 ± 0.34
288.15 K, x1 = 0.3526	761.75 ± 0.36
288.15 K, x1 = 0.4001	768.71 ± 0.39
288.15 K, x1 = 0.4322	773.78 ± 0.4
288.15 K, x1 = 0.4985	784.9 ± 0.44
288.15 K, x1 = 0.5504	794.42 ± 0.47
288.15 K, x1 = 0.5954	803.25 ± 0.5
288.15 K, x1 = 0.6449	813.66 ± 0.53
288.15 K, x1 = 0.693	824.65 ± 0.57
288.15 K, x1 = 0.7454	837.57 ± 0.61
288.15 K, x1 = 0.7911	849.84 ± 0.65
288.15 K, x1 = 0.8391	863.79 ± 0.7
288.15 K, x1 = 0.8911	880.25 ± 0.76
288.15 K, x1 = 0.9477	900.31 ± 0.83
288.15 K, x1 = 1	921.21 ± 0.89
298.15 K, x1 = 0.0519	718.48 ± 0.26
298.15 K, x1 = 0.1041	723.58 ± 0.27
298.15 K, x1 = 0.1448	727.66 ± 0.29
298.15 K, x1 = 0.1889	732.52 ± 0.3
298.15 K, x1 = 0.2498	739.65 ± 0.32
298.15 K, x1 = 0.2949	745.26 ± 0.34
298.15 K, x1 = 0.3489	752.48 ± 0.36
298.15 K, x1 = 0.409	761.11 ± 0.39
298.15 K, x1 = 0.4474	767.1 ± 0.41
298.15 K, x1 = 0.5033	776.37 ± 0.44
298.15 K, x1 = 0.6015	794.61 ± 0.49
298.15 K, x1 = 0.6609	807.17 ± 0.54
298.15 K, x1 = 0.7048	817.21 ± 0.57
298.15 K, x1 = 0.751	828.64 ± 0.61
298.15 K, x1 = 0.7937	839.79 ± 0.65
298.15 K, x1 = 0.8444	854.36 ± 0.7
298.15 K, x1 = 0.9002	871.96 ± 0.76
298.15 K, x1 = 0.9516	890.02 ± 0.82
298.15 K, x1 = 1	909.1 ± 0.88
308.15 K, x1 = 0.0618	711.31 ± 0.26
308.15 K, x1 = 0.1007	715.02 ± 0.27
308.15 K, x1 = 0.165	721.49 ± 0.29
308.15 K, x1 = 0.1941	724.61 ± 0.3
308.15 K, x1 = 0.2601	732.22 ± 0.32
308.15 K, x1 = 0.2902	735.94 ± 0.34
308.15 K, x1 = 0.3585	744.82 ± 0.36
308.15 K, x1 = 0.4102	752.25 ± 0.38
308.15 K, x1 = 0.4567	759.29 ± 0.41
308.15 K, x1 = 0.4962	765.69 ± 0.43
308.15 K, x1 = 0.5559	776.15 ± 0.46
308.15 K, x1 = 0.5986	784.17 ± 0.49
308.15 K, x1 = 0.6514	794.91 ± 0.52
308.15 K, x1 = 0.699	805.43 ± 0.56
308.15 K, x1 = 0.7476	817.03 ± 0.6
308.15 K, x1 = 0.796	829.48 ± 0.64
308.15 K, x1 = 0.8477	844.14 ± 0.69
308.15 K, x1 = 0.8947	858.8 ± 0.74
308.15 K, x1 = 0.9504	877.94 ± 0.81
308.15 K, x1 = 1	896.91 ± 0.86
318.15 K, x1 = 0.0587	703.05 ± 0.26
318.15 K, x1 = 0.1139	708.17 ± 0.28
318.15 K, x1 = 0.141	710.78 ± 0.28
318.15 K, x1 = 0.2148	718.51 ± 0.31
318.15 K, x1 = 0.2624	723.9 ± 0.32
318.15 K, x1 = 0.3145	730.23 ± 0.34
318.15 K, x1 = 0.3621	736.39 ± 0.36
318.15 K, x1 = 0.394	740.75 ± 0.38
318.15 K, x1 = 0.4491	748.79 ± 0.4
318.15 K, x1 = 0.4889	755.06 ± 0.42
318.15 K, x1 = 0.5458	764.61 ± 0.45
318.15 K, x1 = 0.6011	774.72 ± 0.48
318.15 K, x1 = 0.6538	785.15 ± 0.52
318.15 K, x1 = 0.6972	794.52 ± 0.55
318.15 K, x1 = 0.7464	805.96 ± 0.59
318.15 K, x1 = 0.7904	816.99 ± 0.62
318.15 K, x1 = 0.8414	831.04 ± 0.67
318.15 K, x1 = 0.8899	845.62 ± 0.72
318.15 K, x1 = 0.9498	865.72 ± 0.79
318.15 K, x1 = 1	884.71 ± 0.84
328.15 K, x1 = 0.0562	694.8 ± 0.26
328.15 K, x1 = 0.0989	698.61 ± 0.27
328.15 K, x1 = 0.1503	703.45 ± 0.29
328.15 K, x1 = 0.1813	706.43 ± 0.3
328.15 K, x1 = 0.194	707.71 ± 0.3
328.15 K, x1 = 0.2651	715.48 ± 0.32
328.15 K, x1 = 0.3128	721.06 ± 0.34
328.15 K, x1 = 0.3582	726.72 ± 0.36
328.15 K, x1 = 0.4509	739.58 ± 0.4
328.15 K, x1 = 0.5045	747.9 ± 0.42
328.15 K, x1 = 0.5545	756.22 ± 0.45
328.15 K, x1 = 0.6005	764.42 ± 0.48
328.15 K, x1 = 0.6523	774.55 ± 0.51
328.15 K, x1 = 0.7484	795.44 ± 0.58
328.15 K, x1 = 0.7963	807.38 ± 0.62
328.15 K, x1 = 0.8469	821.01 ± 0.66
328.15 K, x1 = 0.9004	836.96 ± 0.72
328.15 K, x1 = 0.9501	853.63 ± 0.78
328.15 K, x1 = 1	872.22 ± 0.83
